Reference: ChEMBL document CHEMBL1128020, “Synthesis and sar of 2h-1,2,4-benzothiadiazine-1,1-dioxide-3-carboxylic acid derivatives as novel potent glycine antagonists of the nmda receptor-channel complex” (Bioorg Med Chem Lett, 1994)

Legend:
Glutamate NMDA receptor = experiment: Binding affinity at the glycine binding site of the N-methyl-D-aspartate glutamate receptor in rat cortical membranes using [3H]dichlorokynurenate ([3H]DCKA) as radioligand; type: cell membranes, Membrane
Glutamate receptor 4 = Glutamate receptor 4 (Homo sapiens, UniProt P48058); experiment: Binding affinity against AMPA receptor using [3H]AMPA as the radioligand.
Glutamate receptor 4, sequence (P48058 whole entry): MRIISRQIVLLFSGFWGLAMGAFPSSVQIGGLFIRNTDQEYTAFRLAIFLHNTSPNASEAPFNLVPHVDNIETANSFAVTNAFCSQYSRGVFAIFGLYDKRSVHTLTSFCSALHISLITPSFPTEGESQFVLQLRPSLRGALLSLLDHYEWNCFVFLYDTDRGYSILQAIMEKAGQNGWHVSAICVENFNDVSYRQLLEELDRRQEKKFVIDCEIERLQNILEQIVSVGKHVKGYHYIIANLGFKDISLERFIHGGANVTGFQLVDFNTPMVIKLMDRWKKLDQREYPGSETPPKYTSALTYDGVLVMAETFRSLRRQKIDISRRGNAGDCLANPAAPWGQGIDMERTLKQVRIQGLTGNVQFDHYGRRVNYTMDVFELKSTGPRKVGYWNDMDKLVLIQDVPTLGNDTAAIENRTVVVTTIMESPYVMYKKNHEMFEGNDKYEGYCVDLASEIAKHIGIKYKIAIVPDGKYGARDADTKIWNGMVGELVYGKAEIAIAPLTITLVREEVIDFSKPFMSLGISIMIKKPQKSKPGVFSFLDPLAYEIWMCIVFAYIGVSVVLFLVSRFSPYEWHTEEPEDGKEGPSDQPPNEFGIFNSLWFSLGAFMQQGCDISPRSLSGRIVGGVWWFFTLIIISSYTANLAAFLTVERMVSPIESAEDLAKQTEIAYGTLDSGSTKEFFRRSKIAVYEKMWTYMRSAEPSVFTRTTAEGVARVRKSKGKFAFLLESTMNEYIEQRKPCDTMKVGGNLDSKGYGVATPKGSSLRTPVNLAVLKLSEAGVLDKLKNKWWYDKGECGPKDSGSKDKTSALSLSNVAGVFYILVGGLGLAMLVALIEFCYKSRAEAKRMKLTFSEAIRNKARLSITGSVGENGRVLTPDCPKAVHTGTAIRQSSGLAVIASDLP

IC50 (Glutamate NMDA receptor) [nM] | IC50 (Glutamate receptor 4) [nM] | Compound
50 |  | O=C(O)CCc1c(C(=O)O)[nH]c2cc(Cl)cc(Cl)c12
400 |  | CCOC(=O)C1Nc2cc(Cl)cc(Cl)c2S(=O)(=O)N1C (stereo not given)
14 |  | CCOC(=O)C1Nc2cc(Cl)cc(Cl)c2S(=O)(=O)N1Cc1cccc(C)c1 (stereo not given)
9 |  | CCOC(=O)C1Nc2cc(Cl)cc(Cl)c2S(=O)(=O)N1Cc1cccc(Oc2ccccc2)c1 (stereo not given)
8 |  | O=C(O)C1Nc2cc(Cl)cc(Cl)c2S(=O)(=O)N1Cc1cccc(I)c1 (stereo not given)
17 |  | CCOC(=O)C1Nc2cc(Cl)cc(Cl)c2S(=O)(=O)N1Cc1cccc(C#N)c1 (stereo not given)
38 |  | CCOC(=O)C1Nc2cc(Cl)cc(Cl)c2S(=O)(=O)N1CCSc1ccccc1 (stereo not given)
100 |  | O=C(O)C1Nc2cc(Cl)cc(Cl)c2S(=O)(=O)N1Cc1ccccc1C(F)(F)F (stereo not given)
48 |  | O=C(O)C1Nc2cc(Cl)cc(Cl)c2S(=O)(=O)N1Cc1ccccc1 (stereo not given)
44 |  | CCOC(=O)C1Nc2cc(Cl)cc(Cl)c2S(=O)(=O)N1Cc1ccc(F)cc1 (stereo not given)
13 |  | O=C(O)C1Nc2cc(Cl)cc(Cl)c2S(=O)(=O)N1Cc1cccc(F)c1 (stereo not given)
46 |  | O=C(O)c1cc(O)c2c(Cl)cc(Cl)cc2n1
 | 38000 | O=C(O)C1Nc2cc(Cl)cc(Cl)c2S(=O)(=O)N1Cc1cccc(Br)c1 (stereo not given)
12 |  | CCOC(=O)C1Nc2cc(Cl)cc(Cl)c2S(=O)(=O)N1Cc1cccc([N+](=O)[O-])c1 (stereo not given)
45 |  | CCOC(=O)C1Nc2cc(Cl)cc(Cl)c2S(=O)(=O)N1Cc1ccc(C)cc1 (stereo not given)
20 |  | CCOC(=O)C1Nc2cc(Cl)cc(Cl)c2S(=O)(=O)N1Cc1cccc(-c2ccccc2)c1 (stereo not given)
40 |  | CCOC(=O)C1Nc2cc(Cl)cc(Cl)c2S(=O)(=O)N1Cc1ccc(OC)cc1 (stereo not given)
33 |  | O=C(O)C1Nc2cc(Cl)cc(Cl)c2S(=O)(=O)N1CCCc1ccccc1 (stereo not given)
92 |  | O=C(O)C1Nc2cc(Cl)cc(Cl)c2S(=O)(=O)N1Cc1ccc(C(F)(F)F)cc1 (stereo not given)
9500 |  | O=C(O)CN1C(C(=O)O)Nc2cc(Cl)cc(Cl)c2S1(=O)=O (stereo not given)

IC50 (Glutamate NMDA receptor) [nM] | IC50 (Glutamate receptor 4) [nM] | Compound
36 |  | O=C(O)C1Nc2cc(Cl)cc(Cl)c2S(=O)(=O)N1CCCCCc1ccccc1 (stereo not given)
20 |  | O=C(O)C1Nc2cc(Cl)cc(Cl)c2S(=O)(=O)N1Cc1cccc(OC(F)(F)F)c1 (stereo not given)
12 |  | CCOC(=O)C1Nc2cc(Cl)cc(Cl)c2S(=O)(=O)N1Cc1cccc(OC)c1 (stereo not given)
20 |  | CCOC(=O)C1Nc2cc(Cl)cc(Cl)c2S(=O)(=O)N1Cc1ccc(Cl)cc1 (stereo not given)
48 |  | CCOC(=O)C1Nc2cc(Cl)cc(Cl)c2S(=O)(=O)N1Cc1ccccc1Cl (stereo not given)
22 |  | CCOC(=O)C1Nc2cc(Cl)cc(Cl)c2S(=O)(=O)N1CC(=O)c1ccccc1 (stereo not given)
41 |  | CCOC(=O)C1Nc2cc(Cl)cc(Cl)c2S(=O)(=O)N1CCOc1ccccc1 (stereo not given)
2600 |  | O=C(O)C1Nc2cc(Cl)cc(Cl)c2S(=O)(=O)N1c1ccccc1 (stereo not given)
70 |  | O=C(O)C1Nc2cc(Cl)cc(Cl)c2S(=O)(=O)N1CCS(=O)(=O)c1ccccc1 (stereo not given)
18 |  | CCOC(=O)C1Nc2cc(Cl)cc(Cl)c2S(=O)(=O)N1Cc1cccc(C(F)(F)F)c1 (stereo not given)
29 |  | CCOC(=O)C1Nc2cc(Cl)cc(Cl)c2S(=O)(=O)N1Cc1cccc(N)c1 (stereo not given)
11 |  | CCOC(=O)C1Nc2cc(Cl)cc(Cl)c2S(=O)(=O)N1Cc1cccc(Cl)c1 (stereo not given)
90 |  | O=C(O)C1Nc2cc(Cl)cc(Cl)c2S(=O)(=O)N1CCc1ccccc1 (stereo not given)
26 |  | CCOC(=O)C1Nc2cc(Cl)cc(Cl)c2S(=O)(=O)N1Cc1ccccc1F (stereo not given)
77 |  | O=C(O)C1Nc2cc(Cl)cc(Cl)c2S(=O)(=O)N1CCCCc1ccccc1 (stereo not given)
80 |  | CCOC(=O)C1Nc2cc(Cl)cc(Cl)c2S(=O)(=O)N1Cc1ccccc1C (stereo not given)
21 |  | COc1ccccc1CN1C(C(=O)O)Nc2cc(Cl)cc(Cl)c2S1(=O)=O (stereo not given)
26 |  | O=C(Nc1ccccc1)N[C@H]1C[C@H](C(=O)O)Nc2cc(Cl)cc(Cl)c21 (single isomer, unassigned)
4 |  | O=C(O)C1Nc2cc(Cl)cc(Cl)c2S(=O)(=O)N1Cc1cccc(Br)c1 (single isomer, unassigned; (-))
1880 |  | O=C(O)C1Nc2cc(Cl)cc(Cl)c2S(=O)(=O)N1Cc1cccc(Br)c1 (stereo in doubt; (+)8k)
